# Measured values taken from ChEMBL document CHEMBL1800040, “Quantitative structure-activity relationship study of phloroglucinol-terpene adducts as anti-leishmanial agents” (Bioorg Med Chem Lett, 2011).
# pIC50: −log10 of the molar value.
# Tested on: Leishmania donovani
# Assay: Antileishmanial activity against Leishmania donovani promastigotes
# Assay type: functional, organism-based
Compound,IC50 (read-out: IC50),pIC50 (read-out: IC50),IC50 (read-out: pIC50 (converted))
CC1(C)[C@H]2C[C@@H]3Cc4c(O)c(C=O)c(O)c(C=O)c4O[C@]3(CO)[C@@H]1C2,> 40 µg/mL,,
CC(C)CC(=O)c1c(O)c(C=O)c(O)c2c1O[C@]1(C)C[C@@H]3[C@H](C[C@@H]1C2)C3(C)C,,5.80,1.6 µM
CC(=O)c1c(O)c(C=O)c(O)c2c1O[C@]1(C)C[C@@H]3[C@H](C[C@@H]1C2)C3(C)C,,5.39,4.06 µM
CC(=O)c1c(O)c(C=O)c(O)c2c1O[C@@]1(C)[C@@H](C2)C[C@H]2C[C@@H]1C2(C)C,,5.31,4.93 µM
CC(C)CC(=O)c1c(O)c(C=O)c(O)c2c1O[C@@]1(C)[C@@H](C2)C[C@H]2C[C@@H]1C2(C)C [EUGLOBAL G1],,5.74,1.84 µM
CC(C)CC(=O)c1c(O)c2c(c(C(=O)CC(C)C)c1O)O[C@@]1(CCO)[C@@H](C2)C[C@H]2C[C@@H]1C2(C)C,> 40 µg/mL,,
CC(C)CC(=O)c1c(O)c(C=O)c(O)c2c1O[C@@]1(CC2)CC[C@H]2C[C@@H]1C2(C)C [EUGLOBAL G4],,5.51,3.1 µM
CC(C)CC(=O)c1c(O)c(C=O)c2c(c1O)C[C@H]1C[C@H]3[C@@H](C[C@@]1(C)O2)C3(C)C,,6.14,0.724 µM
CC(C)CC(=O)c1c(O)c(C=O)c2c(c1O)C[C@H]1C[C@H]3C[C@H](C3(C)C)[C@@]1(CO)O2,,5.35,4.48 µM
CC(C)CC(=O)c1c(O)c(C=O)c2c(c1O)C[C@H]1CC[C@H]3[C@H](C3(C)C)[C@@]1(C)O2,,6.21,0.621 µM
CC(C)CC(=O)c1c(O)c(C=O)c2c(c1O)C[C@H]1C[C@H]3C[C@H](C3(C)C)[C@@]1(C)O2 [EUGLOBAL G2],,6.03,0.931 µM
CC(C)CC(=O)c1c(O)c(C=O)c(O)c2c1O[C@@]1(CCO)[C@@H](C2)C[C@H]2C[C@@H]1C2(C)C,,5.11,7.69 µM
CC(C)CC(=O)c1c(O)c(C=O)c(O)c2c1O[C@@]1(C)[C@H](CC[C@H]3[C@@H]1C3(C)C)C2,,5.85,1.42 µM
CC(=O)c1c(O)c(C=O)c2c(c1O)C[C@H]1C[C@H]3C[C@H](C3(C)C)[C@@]1(C)O2,,5.56,2.73 µM
CC1(C)[C@H]2CC[C@H](C2)[C@]12CCc1c(O)c(C=O)c(O)c(C=O)c1O2,,5.39,4.24 µM
CC(C)CC(=O)c1c(O)c(C=O)c2c(c1O)CC[C@@]1(CC[C@H]3C[C@@H]1C3(C)C)O2 [EUGLOBAL G3],,6.00,1.01 µM
CC(C)CC(=O)c1c(O)c2c(c(C(=O)CC(C)C)c1O)O[C@@]1(C)[C@H](CC[C@H]3[C@@H]1C3(C)C)C2,> 40 µg/mL,,
CC1(C)[C@H]2C[C@@H]3Cc4c(O)c(C=O)c(O)c(C=O)c4O[C@]3(C)[C@@H]1C2,,5.14,7.26 µM
CC(C)CC(=O)c1c(O)c2c(c(C(=O)CC(C)C)c1O)O[C@]1(CC2)[C@@H]2CC[C@@H](C2)C1(C)C,> 40 µg/mL,,

Compound,IC50 (read-out: IC50),pIC50 (read-out: IC50),IC50 (read-out: pIC50 (converted))
CC(C)C[C@@H]1C[C@@]2(CC[C@H]3C[C@@H]2C3(C)C)Oc2c(C=O)c(O)c(C=O)c(O)c21,,5.38,4.14 µM
CC(C)CC(=O)c1c(O)c2c(c(C(=O)CC(C)C)c1O)O[C@@]1(CC2)CC[C@H]2C[C@@H]1C2(C)C,> 40 µg/mL,,
CC(C)CC(=O)c1c(O)c2c(c(C(=O)CC(C)C)c1O)O[C@]1(C)C[C@@H]3[C@H](C[C@@H]1C2)C3(C)C,> 40 µg/mL,,
CC1(C)[C@H]2C[C@@H]3Cc4c(O)c(C=O)c(O)c(C=O)c4O[C@]3(CCO)[C@@H]1C2,,5.21,6.11 µM
CC(=O)c1c(O)c(C=O)c2c(c1O)CC[C@@]1(O2)[C@@H]2CC[C@@H](C2)C1(C)C,,5.90,1.25 µM
CC1(C)[C@H]2[C@@H]1CC[C@@H]1Cc3c(O)c(C=O)c(O)c(C=O)c3O[C@@]12C,,5.29,6.05 µM
CC(C)CC(=O)c1c(O)c(C=O)c2c(c1O)CC[C@@]1(O2)[C@@H]2CC[C@@H](C2)C1(C)C,,6.03,0.931 µM
CC(=O)c1c(O)c(C=O)c2c(c1O)CC[C@@]1(CC[C@H]3C[C@@H]1C3(C)C)O2,,5.33,4.65 µM
CC(=O)c1c(O)c(C=O)c(O)c2c1O[C@]1(CC2)[C@@H]2CC[C@@H](C2)C1(C)C,,5.35,5.22 µM
CC(=O)c1c(O)c(C=O)c(O)c2c1O[C@@]1(CC2)CC[C@H]2C[C@@H]1C2(C)C,,5.33,4.65 µM
CC(C)C[C@H]1C[C@@]2(CC[C@H]3C[C@@H]2C3(C)C)Oc2c(C=O)c(O)c(C=O)c(O)c21,,5.29,5.18 µM
CC(=O)c1c(O)c(C=O)c2c(c1O)C[C@H]1C[C@H]3[C@@H](C[C@@]1(C)O2)C3(C)C,,5.56,2.76 µM
CC1(C)[C@@H]2C[C@@]3(C)Oc4c(C=O)c(O)c(C=O)c(O)c4C[C@H]3C[C@@H]21,,5.24,5.75 µM
CC(C)CC(=O)c1c(O)c2c(c(C(=O)CC(C)C)c1O)O[C@@]1(C)[C@@H](C2)C[C@H]2C[C@@H]1C2(C)C,> 40 µg/mL,,
CC(C)CC(=O)c1c(O)c(C=O)c2c(c1O)C[C@H]1C[C@H]3C[C@H](C3(C)C)[C@@]1(CCO)O2,,5.64,2.28 µM
CC(C)CC(=O)c1c(O)c(C=O)c(O)c2c1O[C@]1(CC2)[C@@H]2CC[C@@H](C2)C1(C)C,,5.39,3.62 µM
CC(C)CC(=O)c1c(O)c2c(c(C(=O)CC(C)C)c1O)O[C@@]1(CO)[C@@H](C2)C[C@H]2C[C@@H]1C2(C)C,,5.16,6.93 µM
CC(C)CC(=O)c1c(O)c(C=O)c(O)c2c1O[C@@]1(CO)[C@@H](C2)C[C@H]2C[C@@H]1C2(C)C,,5.13,7.45 µM
CC1(C)[C@H]2CC[C@@]3(CCc4c(O)c(C=O)c(O)c(C=O)c4O3)[C@@H]1C2,,5.20,6.35 µM
